Source: patent US20260250318A1, “COMPOSITIONS AND METHODS FOR CROSSING THE BLOOD BRAIN BARRIER” (VOYAGER THERAPEUTICS, INC., priority 2022, published 2026)

Experiments:
[1] = tested on: brains, heart, liver, muscle, and DRG of the NHPs; experiment: Maturation of TTM-001 and TTM-002 capsids, NGS enrichment in NHP tissues; assay type: in vivo; conditions: relative to AAV9 control
How it was run: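 Variants carry mutations within and flanking the loop IV peptide insert: positions 450–466 were triplet-randomized, while positions 449–466 received low-frequency point mutations. The combined pool went into two NHPs, and each peptide was scored by NGS enrichment ratio against AAV9.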

brain = experiment: Matured TTM-001 and TTM-002 variants, NGS enrichment in mouse brain; assay type: in vivo, mice; conditions: relative to AAV9 control
[2] = NGS fold-enrichment, DRG of NHPs
[3] = NGS fold-enrichment, RNA, brain of NHPs
[4] = NGS fold-enrichment, heart of NHPs
[5] = NGS fold-enrichment, liver DNA of NHPs
[6] = NGS fold-enrichment, liver RNA of NHPs
[7] = NGS fold-enrichment, muscle of NHPs
[8] = NGS fold-enrichment, brain of mice
[9] = NGS fold-enrichment of matured AAV capsid variants, NHP brain, RNA
[10] = NGS fold-enrichment of RNA, NHP brain
[11] = NGS fold-enrichment, NHP liver DNA
[12] = NGS fold-enrichment, NHP liver RNA
[13] = NGS fold-enrichment, NHP muscle
[14] = NGS fold-enrichment, mouse brain

Sequence	Fold Enrichment relative to AAV9, DRG (NHP) [1, 2] [fold]	Fold Enrichment relative to AAV9, Brain (NHP) [1, 3] [fold]	Fold Enrichment relative to AAV9, Heart (NHP) [1, 4] [fold]	Fold Enrichment relative to AAV9, Liver DNA (NHP) [1, 5] [fold]	Fold Enrichment relative to AAV9, Liver RNA (NHP) [1, 6] [fold]	Fold Enrichment relative to AAV9, Muscle (NHP) [1, 7] [fold]	Fold Enrichment relative to AAV9, Brain (Mouse) (brain; [8]) [fold]	Fold Enrichment relative to AAV9, Brain (NHP) [1, 9] [fold]	Fold Enrichment relative to AAV9, DRG (NHP) ([1]; NHP DRG) [fold]	Fold Enrichment relative to AAV9, Heart (NHP) ([1]; NHP heart) [fold]	Fold Enrichment relative to AAV9, Liver DNA (NHP) ([1]; NHP liver, DNA) [fold]	Fold Enrichment relative to AAV9, Liver RNA (NHP) ([1]; NHP liver, RNA) [fold]	Fold Enrichment relative to AAV9, Muscle (NHP) ([1]; NHP muscle) [fold]	Fold Enrichment relative to AAV9, Brain (Mouse) (brain; mouse brain) [fold]	other results
KTIKGSGSPHSKAQDLQT	0.000	63.260	0.000	0.218	0.000	0.000	58.576								
KTINGSGSPHSKAQTPPT	0.010	64.657	0.015	0.207	0.200	0.014	54.179								
KTINGSGSPHSKAQHGLT								55.999	0.000	0.000	0.244	1.913	0.101	117.191	
KTINGSGSPHSKAGDSQT								50.457	0.614	0.236	0.071	1.062	0.008	74.355	
KAINGHDSPHKSEKNQQT															Fold Enrichment relative to AAV9, Brain (NHP) [1, 10]: 77.103 fold; Fold Enrichment relative to AAV9, DRG (NHP) ([1]; NGS fold-enrichment, NHP DRG): 0.000 fold; Fold Enrichment relative to AAV9, Heart (NHP) ([1]; NGS fold-enrichment, NHP heart): 0.274 fold; Fold Enrichment relative to AAV9, Liver DNA (NHP) [1, 11]: 0.000 fold; Fold Enrichment relative to AAV9, Liver RNA (NHP) [1, 12]: 0.000 fold; Fold Enrichment relative to AAV9, Muscle (NHP) [1, 13]: 0.000 fold; Fold Enrichment relative to AAV9, Brain (Mouse) (brain; [14]): 26.868 fold
KNINGGGSPHSKAQNQQT	0.000	83.083	0.042	0.000	0.000	0.000	75.913								Fold Enrichment relative to AAV9, Brain (NHP) [1, 10]: 83.083 fold; Fold Enrichment relative to AAV9, DRG (NHP) ([1]; NGS fold-enrichment, NHP DRG): 0.000 fold; Fold Enrichment relative to AAV9, Heart (NHP) ([1]; NGS fold-enrichment, NHP heart): 0.042 fold; Fold Enrichment relative to AAV9, Liver DNA (NHP) [1, 11]: 0.000 fold; Fold Enrichment relative to AAV9, Liver RNA (NHP) [1, 12]: 0.000 fold; Fold Enrichment relative to AAV9, Muscle (NHP) [1, 13]: 0.000 fold; Fold Enrichment relative to AAV9, Brain (Mouse) (brain; [14]): 75.913 fold
KTINGSGSPHSKAQVRNT								52.735	0.000	0.101	0.423	0.230	0.011	68.893	
KTINGGGSPHSKAQSQQI	0.000	74.264	0.000	0.235	0.000	0.000	67.651								
